Reference: EP0297435A2, “Aminopropanol derivatives of 3-(3'-hydroxyphenyl)-1-propanone, process for their preparation and medicines containing these compounds” (Helopharm W. Petrik GmbH & Co.KG., priority 1987, dated 1989)

Columns and labels:
[1] = tested on: Meerschweinchen-Papillarmuskel; experiment: Effect on contraction force of the heart, guinea pig papillary muscle; format: cell-based; details: contraction force (negative inotropy), read-out: C20 CF
Excerpt: Die Wirkung auf die Kontraktionskraft des Herzens wurde am Meerschweinchen-Papillarmuskel untersucht. Hämodynamische Studien wurden bei gesunden, wie auch akut infarzierten Hunden durchgeführt.

[2] = tested on: Purkinje-Fasern aus Hundeherzen; experiment: Electrophysiological studies on Purkinje fibres from dog hearts (Vmax); format: cell-based, Hund
Excerpt: Die antiarrhythmische Wirksamkeit der erfindungsgemäßen Verbindungen wurde sowohl anhand von elektrophysiologischen Studien an Purkinje-Fasern aus Hundeherzen sowie mit Hilfe von Ouabaininduzierten ventrikulären Tachykardien bei Hunden bestimmt. […]
Als zusätzliches Kriterium wurde der Vorzeitigkeitsindex (Prematurity-Faktor) bestimmt, der die erwünschte Wirksamkeit der erfindungsgemäßen Verbindungen bei vorzeitigen Extrasystolen charakterisiert.

[3] = Acute toxicity LD50 in rats, i.v.; details: rat, in vivo, iv; Ratte (i.v.); read-out: LD₅₀
[4] = Acute toxicity LD50 in mice, i.v.; details: mouse, in vivo, iv; Maus (i.v.); read-out: LD₅₀

In the case of CCC(C)(C)NCC(O)COc1cc(CCC(=O)c2ccc(C)cc2)ccc1OC.Cl (stereo not drawn) [Beispiel 36, 1-(4-Methylphenyl)-3-[3′-(2-hydroxy-3-tert.-pentylaminopropoxy)-4′-methoxyphenyl]-1-propanon-hydrochlorid], the IC20 [1] is reported as 8 µM, the IC20 ([2]; Purkinje-Fasern aus Hundeherzen, read-out: C20 Vmax) is reported as 2.8 µM and the “Prematurity Faktor Vmax” value ([2]; Vorzeitigkeitsindex, activity on premature extrasystoles) is reported as 0,99. The “Rate-Faktor von Vmax” value ([2]; specifically stronger activity at higher frequencies) was 1,41, the LD50 [3] was 10 mg/kg and the LD50 [4] was 18 mg/kg.
